According to US7622464B2, “Morpholinyl-urea derivatives for use in the treatment of inflammatory diseases” (Glaxo Group Limited, priority 2002, dated 2009):

Biological target: eosinophils purified from human peripheral blood
Assay: Eosinophil chemotaxis assay (eotaxin-induced)
Assay type: cell-based
Conditions: functional pKi; inhibition of human eosinophil chemotaxis to eotaxin (EC80 concentration)
Method: (b) Eosinophil Chemotaxis Assay.
Compounds were evaluated for their inhibitory effect on eosinophil chemotaxis. Eosinophils were purified from human peripheral blood by standard CD16 cell depletion using a Miltenyi cell separation column and a magnetic Super Macs magnet as previously described (Motegi & Kita, 1998; J. Immunology. 161:4340-6). Cells were re-suspended in RPMI 1640/10% FCS solution and incubated with calcein-AM (Molecular Probes) at 37° C. for 30 mins. Following incubation, the eosinophils were centrifuged at 400 g for 5 min and re-suspended in RPMI/FCS at 2.2 million/ml. Cells were then incubated in the presence of increasing concentration of compounds (1 pM to 30 μM) at 37° C. for 30 mins. For control responses cells were incubated with RPMI/FCS only. The agonist eotaxin (an EC80 concentration) was added to the lower chamber of a 96 well chemotaxis plate (5 μm filter: Receptor Technologies). Eosinophils (50 μl of 2 million/ml cells) were added to the top chamber of the filter plate and incubated at 37° C. for 45 mins. Cells remaining on top of the chemotaxis filter were removed and the number of eosinophils which had migrated were quantified by reading the plate on a fluorescent plate reader. Inhibition curves for the effect of compounds on eosinophil chemotaxis were analysed by fitting the data with a four parameter logistic equation. […]

SMILES	fpKi
O=C(NCc1nnn(CC2CC2)n1)NC[C@H]1CN(Cc2ccc(Cl)c(Cl)c2)CCO1 [Example 97, 1-(2-Cyclopropylmethyl-2H-tetrazol-5-ylmethyl)-3-[(2S)-4-(3,4-dichlorobenzyl)morpholin-2-ylmethyl]-urea]	9.2
CNC(=O)c1csc(CNC(=O)NC[C@H]2CN(Cc3ccc(Cl)c(Cl)c3)CCO2)c1 [Example 116, 5-{3-[(2S)-4-(3,4-Dichlorobenzyl)-morpholin-2-ylmethyl]-ureidomethyl}-thiophene-3-carboxylic acid methylamide]	9.8
